# In US5859257A, “Isoxazole compounds as cyclooxygenase inhibitors” (G. D. Searle & Co., priority 1996, dated 1999):
# Tests used:
# COX-2 = test: Evaluation of COX-2 activity in vitro (PGE2 ELISA, recombinant enzyme); format: biochemical, human or murine; details: arachidonic acid 10 μM, pH 8.0, pre-incubation 10-20 minutes
# Procedure: The COX-2 inhibition activity of the compounds of this invention illustrated in the Examples was determined by the following methods.
# (§1) a. Preparation of recombinant COX baculoviruses
# (§2) Recombinant COX-1 and COX-2 were prepared as scribed by Gierse et al, [J. Biochem., 305, 479-84 (1995)]. […] Recombinant baculoviruses were isolated by transfecting 4 μg of baculovirus transfer vector DNA into SF9 insect cells (2×10^8) along with 200 ng of linearized baculovirus plasmid DNA by the calcium phosphate method. See M. D. Summers and G. E. Smith, A Manual of Methods for Baculovirus Vectors and Insect Cell Culture Procedures, Texas Agric. Exp. Station Bull. 1555 (1987). Recombinant viruses were purified by three rounds of plaque purification and high titer (10^7 -10^8 pfu/mL) stocks of virus were prepared. For large scale production, SF9 insect cells were infected in 10 liter fermentors (0.5×10^6 /mL) with the recombinant baculovirus stock such that the multiplicity of infection was 0.1. After 72 hours the cells were centrifuged and the cell pellet homogenized in Tris/Sucrose (50 mM: 25%, pH 8.0) containing 1% 3-[(3-cholamidopropyl)dimethylammonio]-1-propanesulfonate (CHAPS). The nomogenate was centrifuged at 10,000×G for 30 minutes, and the resultant supernatant was stored at -80° C. before being assayed for COX activity.
# (§3) COX activity was assayed as PGE2 formed/μg protein/time using an ELISA to detect the prostaglandin released. CHAPS-solubilized insect cell membranes containing the appropriate COX enzyme were incubated in a potassium phosphate buffer (50 mM, pH 8.0) containing epinephrine, phenol, and heme with the addition of arachidonic acid (10 μM). […] Any reaction between the arachidonic acid and the enzyme was stopped after ten minutes at 37° C./room temperature by transferring 40 μl of reaction mix into 160 μl ELISA buffer and 25 μM indomethacin. The PGE2 formed was measured by standard ELISA technology (Cayman Chemical).
# COX-1 = test: Evaluation of COX-1 activity in vitro (PGE2 ELISA, recombinant enzyme); format: biochemical, human or murine; details: arachidonic acid 10 μM, pH 8.0, pre-incubation 10-20 minutes
# Procedure: as §1, §2, §3
# rat paw edema = test: Rat Carrageenan Foot Pad Edema Test; format: in vivo, Male Sprague-Dawley rats; details: @ 10 mg/kg body weight, oral, 3 h after carrageenan
# Procedure: Rat Carrageenan Foot Pad Edema Test
# Male Sprague-Dawley rats were selected in each group so that the average body weight was as close as possible. Rats were fasted with free access to water for over sixteen hours prior to the test. […] One hour later a subplantar injection of 0.1 mL of 1% solution of carrageenan/sterile 0.9% saline was administered and the volume of the injected foot was measured with a displacement plethysmometer connected to a pressure transducer with a digital indicator. Three hours after the injection of the carrageenan, the volume of the foot was again measured.
SMILES,IC50 (COX-2) [µM],IC50 (COX-1) [µM],RAT PAW EDEMA % Inhibition (rat paw edema) [%]
"Cc1noc(-c2ccc(S(N)(=O)=O)cc2)c1-c1ccccc1 [Example 23, 4-[3-Methyl-4-phenylisoxazol-5-yl]benzenesulfonamide]",0.2,56,
"Cc1noc(-c2cccc(Cl)c2)c1-c1ccc(S(N)(=O)=O)cc1 [Example 24, 4-[5-(3-Chlorophenyl)-3-methylisoxazol-4-yl]benzenesulfonamide]",8.4,> 100,
"NS(=O)(=O)c1ccc(-c2c(CO)noc2-c2ccccc2)cc1 [Example 25, 4-[3-Hydroxymethyl-5-phenylisoxazol-4-yl]benzenesulfonamide]",79,> 100,
"NS(=O)(=O)c1ccc(-c2c(CC(=O)O)noc2-c2ccccc2)cc1 [Example 26, 4-(4-Aminosulfonylphenyl)-5-phenyl-isoxazole-3-acetic acid]",69.5,> 100,
"Cc1noc(-c2ccccc2)c1-c1ccc(S(C)(=O)=O)cc1 [Example 27, 3-Methyl-4-(4-methylsulfonylphenyl)-5-phenylisoxazole]",46,> 100,
"NS(=O)(=O)c1ccc(-c2c(CC(O)c3ccc(Cl)cc3)noc2-c2ccccc2)cc1 (stereo not drawn) [Example 28, 4-[3-[2-(4-Chlorophenyl)-2-hydroxyethyl]-5-phenylisoxazol-4-yl]benzenesulfonamide]",0.1,> 100,
"CCc1noc(-c2ccc(F)cc2)c1-c1ccc(S(N)(=O)=O)cc1 [Example 30, 4-[3-Ethyl-5-(4-fluorophenyl)isoxazol-4-yl]benzenesulfonamide]",< 0.1,41,
"CCc1noc(-c2cccc(F)c2)c1-c1ccc(S(N)(=O)=O)cc1 [Example 31, 4-[3-Ethyl-5-(3-fluorophenyl)isoxazol-4-yl]benzenesulfonamide]",1.3,> 100,
"CCc1noc(-c2ccccc2F)c1-c1ccc(S(N)(=O)=O)cc1 [Example 33, 4-[3-Ethyl-5-(2-fluorophenyl)isoxazol-4-yl]benzenesulfonamide]",< 0.1,26,
"NS(=O)(=O)c1ccc(-c2c(-c3ccccc3)noc2COCC(=O)O)cc1 [Example 35, [[4-[4-(Aminosulfonyl)phenyl]-3-phenylisoxazol-5-yl]-methoxy]acetic acid]",5.1,> 100,
NS(=O)(=O)c1ccc(-c2c(-c3ccccc3)noc2CCCC(=O)O)cc1 [Example 36],1.5,> 100,
"N#Cc1onc(-c2ccccc2)c1-c1ccc(S(N)(=O)=O)cc1 [Example 37, 4-[5-Cyano-3-phenylisoxazol-4-yl]benzenesulfonamide]",20,> 100,
"NS(=O)(=O)c1ccc(-c2c(-c3ccccc3)noc2Cl)cc1 [Example 38, 4-[5-Chloro-3-phenylisoxazol-4-yl]benzenesulfonamide]",< 0.1,> 100,
"NS(=O)(=O)c1ccc(-c2c(-c3ccccc3)noc2OS(=O)(=O)C(F)(F)F)cc1 [Example 39, 4-[5-Trifluoromethansulfonoxy-3-phenylisoxazol-4-yl]benzenesulfonamide]",0.9,> 100,
"CSc1ccc(-c2noc(C)c2-c2ccncc2)cc1 [Example 40, [5-Methyl-3-(4-methylthiophenyl)isoxazol-4-yl]-4-pyridine]",91,2.3,
"Cc1onc(-c2ccc(S(N)(=O)=O)cc2)c1-c1ccccc1 [Example 41, 4-[5-Methyl-4-phenylisoxazol-3-yl]benzenesulfonamide]",57.5,81,
"Cc1onc(-c2cc(F)cc(F)c2)c1-c1ccc(S(N)(=O)=O)cc1 [Example 42, 4-[3-(3,5-Difluorophenyl)-5-methylisoxazol-4-yl]benzenesulfonamide]",22.5,> 100,

SMILES,IC50 (COX-2) [µM],IC50 (COX-1) [µM],RAT PAW EDEMA % Inhibition (rat paw edema) [%]
"Cc1onc(-c2ccc(Br)cc2)c1-c1ccc(S(N)(=O)=O)cc1 [Example 43, 4-[3-(4-Bromophenyl)-5-methyl-isoxazol-4-yl]benzenesulfonamide]",0.6,> 100,
"COc1ccc(-c2noc(C(F)F)c2-c2ccc(S(N)(=O)=O)cc2)cc1F [Example 44, 4-[5-Difluoromethyl-3-(3-fluoro-4-methoxyphenyl)isoxazol-4-yl]benzenesulfonamide]",1.7,> 100,
"COc1ccc(-c2noc(C(F)F)c2-c2ccc(S(N)(=O)=O)cc2)cc1 [Example 45, 4-[5-Difluoromethyl-3-(4-methoxyphenyl)isoxazol-4-yl]benzenesulfonamide]",< 0.1,16,
"Cc1ccc(-c2noc(C(F)F)c2-c2ccc(S(N)(=O)=O)cc2)cc1 [Example 46, 4-[5-Difluoromethyl-3-(4-methylphenyl)isoxazol-4-yl]benzenesulfonamide]",0.5,100,
"CS(=O)(=O)c1ccc(-c2c(-c3ccccc3)noc2C(F)F)cc1 [Example 47, 5-Difluoromethyl-4-(4-methylsulfonylphenyl)-3-phenylisoxazole]",< 0.1,> 100,24
"Cc1onc(-c2cccc(Cl)c2)c1-c1ccc(S(N)(=O)=O)cc1 [Example 48, 4-[3-(3-Chlorophenyl)-5-methylisoxazol-4-yl]benzenesulfonamide]",0.3,93,
"COC(=O)c1ccc(OCc2onc(-c3ccccc3)c2-c2ccc(S(N)(=O)=O)cc2)cc1 [Example 50, Methyl 4-[[4-[4-(aminosulfonyl)phenyl]-3-phenylisoxazol-5-yl]methoxy]benzoate]",< 0.1,> 100,
"NS(=O)(=O)c1ccc(-c2c(-c3ccccc3)noc2COc2ccc(C(=O)O)cc2)cc1 [Example 51, 4-[[4-[4-(Aminosulfonyl)phenyl]-3-phenylisoxazol-5-yl]methoxy]benzoic acid]",19,> 100,
"NS(=O)(=O)c1ccc(-c2c(-c3ccccc3)noc2CC(=O)C(F)(F)F)cc1 [Example 52, 4-[3-Phenyl-5-(3,3,3-trifluoro-2-oxopropyl)isoxazol-4-yl]benzenesulfonamide]",0.2,93,
"CCc1noc(-c2ccccc2C)c1-c1ccc(S(N)(=O)=O)cc1 [Example 54, 4-[3-Ethyl-5-(2-methylphenyl)isoxazol-4-yl]benzenesulfonamide]",1.8,> 100,
"NS(=O)(=O)c1ccc(-c2c(-c3cccc(F)c3)noc2CC(=O)O)cc1 [Example 55, [4-(4-Aminosulfonylphenyl)-3-(3-fluorophenyl)isoxazol-5-yl]acetic acid]",< 0.1,> 100,
"CSc1onc(-c2ccccc2)c1-c1ccc(S(N)(=O)=O)cc1 [Example 58, 4-[5-Methylthio-3-phenylisoxazol-4-yl]benzenesulfonamide]",< 0.1,14,
"C[S+]([O-])c1onc(-c2ccccc2)c1-c1ccc(S(N)(=O)=O)cc1 (stereo not drawn) [Example 59, 4-[5-Methylsulfinyl-3-phenylisoxazol-4-yl]benzenesulfonamide]",< 0.1,> 100,
"NS(=O)(=O)c1ccc(-c2c(-c3ccccc3)noc2COCCO)cc1 [Example 60, 4-[5-(2-Hydroxyethyl)oxymethyl-3-phenylisoxazol-4-yl]benzenesulfonamide]",0.2,> 100,
"CS(=O)(=O)c1ccc(-c2c(-c3ccccc3)noc2CO)cc1 [Example 61, 5-Hydroxymethyl-4-(4-methylsulfonyl)phenyl-3-phenyl-isoxazole]",0.2,> 100,
"Cc1onc(-c2ccc(Cl)c(Cl)c2)c1-c1ccc(S(N)(=O)=O)cc1 [Example 67, 4-[5-Methyl-3-(3,4-dichlorophenyl)isoxazol-4-yl]benzenesulfonamide]",0.3,36,
"Cc1onc(-c2ccc(Cl)c(Cl)c2C(=O)O)c1-c1ccc(S(N)(=O)=O)cc1 [Example 68, 6-[4-[4-(aminosulfonyl)phenyl]-5-methylisoxazol-3-yl]-2,3-dichlorobenzoic acid]",0.4,> 100,
